According to PMC9318816, “Differential Effects of a Novel Opioid Ligand UTA1003 on Antinociceptive Tolerance and Motor Behaviour” (Pharmaceuticals, 2022):
Like-named read-outs stand apart in the source and are kept apart here. Non-standard residues stand in square brackets, D forms with d. Residues, ends and D or L forms follow the SMILES beside them. *: point of attachment. Dmt = Cc1cc(O)cc(C)c1C[C@H](N)C(=O)O; Pip = O=C(O)[C@@H]1CCCCN1; NHBn = c1ccc(CN*)cc1

What was measured:
human MOP receptor = target: T1, human MOP receptor (Homo sapiens, UniProt P35372); experiment: cAMP assay in CHO-MOP cells (agonism); type: cell-based
T1 construct: expressed in transfected cells; host or cells: CHO (CHO-MOP, G418 selection)

[1] = tested on: untransfected Chinese hamster ovary (CHO-WT) cells; experiment: cAMP assay: inhibition of forskolin-stimulated cAMP in untransfected CHO cells; type: cell-based; conditions: 100 µM ligand, 1 µM forskolin
human DOP receptor [2] = target: T2, human DOP receptor (Homo sapiens, UniProt P41143); experiment: cAMP assay in CHO-DOP cells (agonism); type: cell-based; conditions: for Inhibition of forskolin-stimulated cAMP production: 100 µM ligand, CHO-DOP cells, reference DPDPE
T2 construct: expressed in transfected cells; host or cells: CHO (CHO-DOP, G418 selection)

human KOP receptor = target: T3, human KOP receptor (Homo sapiens, UniProt P41145); experiment: cAMP assay in CHO-KOP cells (agonism); type: cell-based
T3 construct: expressed in transfected cells; host or cells: CHO (CHO-KOP, G418 selection)

human NOP receptor = target: T4, human NOP receptor (Homo sapiens, UniProt P41146); experiment: cAMP assay in CHO-NOP cells (agonism); type: cell-based
T4 construct: expressed in transfected cells; host or cells: CHO (CHO-NOP, G418 and hygromycin B selection)

human DOP receptor [3] = target: T2, human DOP receptor; experiment: Antagonism of DPDPE effect in cAMP assay, CHO-DOP cells; type: cell-based
Protocol: The antagonist effect of UTA1003 was calculated as described in previous studies. […] (Figure 3E, Table 1).
For a direct comparison between the UTA ligands, standard compounds, and for the concentration-response curves, the pharmacological effect was calculated as % of inhibition of forskolin-induced cAMP production, and the values were used for statistical analysis.

Solubility (subjective) = type: physicochemical; conditions: detailed solubility experiments not performed
rat hippocampus = tested on: rat hippocampus; design: method as in earlier work; conditions: approximately five times lower dose; cited from earlier work
Sprague Dawley rats [4] = experiment: Open-field motor behaviour
Sprague Dawley rats [5] = experiment: Observation of physiological or behavioural toxicity after subcutaneous administration; conditions: for Physiological or behavioural toxicity: subcutaneous administration
Sprague Dawley rats [6] = experiment: Hot plate antinociception assay; conditions: repeated s.c. twice daily treatment; days 2, 5 and 8
KOP receptor = target: KOP receptor; design: method as in PMID 22194444; conditions: partial agonist; cited from earlier work
NOP receptor = target: NOP receptor; design: method as in PMID 22194444; conditions: partial agonist; cited from earlier work
DOP receptor = conditions: cited from earlier work

T2 sequence (P41143 whole entry): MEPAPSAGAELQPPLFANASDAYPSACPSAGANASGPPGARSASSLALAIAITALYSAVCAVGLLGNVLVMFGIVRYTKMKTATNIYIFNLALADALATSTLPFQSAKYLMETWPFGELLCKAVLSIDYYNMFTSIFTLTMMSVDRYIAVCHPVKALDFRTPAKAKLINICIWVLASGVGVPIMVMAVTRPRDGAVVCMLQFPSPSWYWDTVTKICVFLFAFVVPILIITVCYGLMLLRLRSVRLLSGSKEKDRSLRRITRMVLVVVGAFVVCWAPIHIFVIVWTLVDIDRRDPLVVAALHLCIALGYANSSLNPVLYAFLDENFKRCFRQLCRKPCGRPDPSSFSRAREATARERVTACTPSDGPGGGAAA
T3 sequence (P41145 whole entry): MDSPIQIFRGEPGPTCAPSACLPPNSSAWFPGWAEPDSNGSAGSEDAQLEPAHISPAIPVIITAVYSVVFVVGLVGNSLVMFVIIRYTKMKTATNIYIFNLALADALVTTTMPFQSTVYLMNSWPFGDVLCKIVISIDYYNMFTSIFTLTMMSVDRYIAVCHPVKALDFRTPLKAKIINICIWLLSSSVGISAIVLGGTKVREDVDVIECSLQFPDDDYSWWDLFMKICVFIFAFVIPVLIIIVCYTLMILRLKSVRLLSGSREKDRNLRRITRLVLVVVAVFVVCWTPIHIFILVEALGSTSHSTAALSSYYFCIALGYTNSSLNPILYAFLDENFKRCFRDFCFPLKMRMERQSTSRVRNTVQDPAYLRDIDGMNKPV
T1 sequence (P35372 whole entry): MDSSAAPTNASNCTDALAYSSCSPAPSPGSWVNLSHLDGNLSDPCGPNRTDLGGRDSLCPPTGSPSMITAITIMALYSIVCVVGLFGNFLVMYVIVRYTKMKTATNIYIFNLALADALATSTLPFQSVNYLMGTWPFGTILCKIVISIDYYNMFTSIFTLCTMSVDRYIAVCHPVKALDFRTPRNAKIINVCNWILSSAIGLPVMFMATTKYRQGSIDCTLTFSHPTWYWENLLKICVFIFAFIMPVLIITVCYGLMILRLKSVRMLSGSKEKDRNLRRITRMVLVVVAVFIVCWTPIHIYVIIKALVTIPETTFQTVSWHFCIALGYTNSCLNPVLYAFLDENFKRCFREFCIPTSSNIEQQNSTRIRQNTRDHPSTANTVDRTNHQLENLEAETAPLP
T4 sequence (P41146 whole entry): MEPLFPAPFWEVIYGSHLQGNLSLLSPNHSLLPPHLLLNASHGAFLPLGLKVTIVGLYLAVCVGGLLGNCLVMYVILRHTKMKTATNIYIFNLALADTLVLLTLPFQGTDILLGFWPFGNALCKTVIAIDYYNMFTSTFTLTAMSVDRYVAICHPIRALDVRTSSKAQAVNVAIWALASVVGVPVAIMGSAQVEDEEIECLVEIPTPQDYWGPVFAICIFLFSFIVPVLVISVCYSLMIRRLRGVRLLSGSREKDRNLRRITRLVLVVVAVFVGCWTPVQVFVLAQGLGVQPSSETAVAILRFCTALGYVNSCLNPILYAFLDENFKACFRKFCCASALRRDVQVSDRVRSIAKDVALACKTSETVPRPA

**Q.** Which Emax (human MOP receptor; CHO-MOP, inhibition of forskolin-stimulated cAMP, read-out: Emax (%)) does the source give for C[C@@H](NC(=O)[C@@H](N)Cc1ccc(O)cc1)C(=O)NCC(=O)N(C)[C@@H](Cc1ccccc1)C(=O)NCCO [DAMGO, reference compound] here?
**A.** 88.8%

**Q.** Which results are given for Cc1cc(O)cc(C)c1C[C@H](N)C(=O)N1CCCC[C@H]1C(=O)NCC(=O)NCc1ccccc1 [UTA1003] (H-[Dmt]-[Pip]-Gly-NHBn)?
**A.** Inhibition of forskolin-stimulated cAMP production [1]: not observed; Emax (human MOP receptor): 82.4%; EC50 (human MOP receptor; EC50, CHO-MOP, 1 µM forskolin): 6.89 nM; EC50 (human MOP receptor; pEC50, CHO-MOP): 6.92 nM; Emax (human DOP receptor [2]): 28.2%; Inhibition of forskolin-stimulated cAMP production (human DOP receptor [2]): significantly lower specificity than DPDPE; EC50 (human DOP receptor [2]; EC50, CHO-DOP, 1 µM forskolin): 26.6 nM; EC50 (human DOP receptor [2]; pEC50, CHO-DOP): 26.3 nM; Emax (human KOP receptor): 94.5%; EC50 (human KOP receptor; EC50): 30.9 nM; EC50 (human KOP receptor; pEC50): 30.9 nM; Emax (human NOP receptor): 28.3%; EC50 (human NOP receptor; EC50, CHO-NOP, 5 µM forskolin): 1790 nM; EC50 (human NOP receptor; pEC50, CHO-NOP): 1780 nM; Kb (human DOP receptor [3]; CHO-DOP, read-out: DOP receptor antagonism pKb (converted)): 47.9 nM; Kd (human DOP receptor [3]; read-out: Antagonist Effect (Kd)): 47.8 nM; Solubility compared to UFP-505 (Solubility (subjective)): subjectively displayed better solubility; Oxidative damage in the rat hippocampus (rat hippocampus): reduced oxidative damage in the rat hippocampus; Rearing time and rearing numbers, open field (Sprague Dawley rats [4]; acute s.c., 30 min post administration): slightly reduced rearing time and rearing numbers than vehicle; Total rotational activities, open field (Sprague Dawley rats [4]; acute s.c., 120 min observation): remained unaffected; Moving distance, open field (Sprague Dawley rats [4]; acute s.c., UTA1003 24.6 mg/kg): unaffected; Moving time, open field (Sprague Dawley rats [4]; acute s.c., UTA1003 24.6 mg/kg, 30 min post administration): significantly reduced moving time compared to the vehicle group; Motor behaviour after repeated treatment, open field (Sprague Dawley rats [4]; s.c. twice daily over 8 days, 30 min post administration): only a mild but significant suppression of motor activity on the first day; Itching (Sprague Dawley rats [5]; repeated dosing): absent; Physiological or behavioural toxicity (Sprague Dawley rats [5]): did not observe any physiological or behavioural toxicity

**Q.** For CN1CC[C@]23c4c5ccc(O)c4O[C@H]2[C@@H](O)C=C[C@H]3[C@H]1C5 [morphine], which “Antinociception, morphine versus UTA1003/morphine at same day, hot plate” value (Sprague Dawley rats [6]) is on record?
**A.** significantly lower than those of the UTA1003/morphine co-treatment on day 2

**Q.** With H-Dmt-Tic-Gly-NH-Bzl [UFP-505] as the molecule, how does the “Inhibition of forskolin-stimulated cAMP production” value [1] read?
**A.** not observed

**Q.** And the “Inhibition of forskolin-stimulated cAMP production” value (human DOP receptor [2])?
**A.** significantly lower specificity than DPDPE

**Q.** What about the pKi (KOP receptor) of the same molecule?
**A.** 6.29

**Q.** And the pKi (NOP receptor)?
**A.** 5.86

**Q.** What about the “DOP receptor antagonism pKb” value (DOP receptor; ref 37) of the same molecule?
**A.** 9.81

**Q.** What about the “DOP receptor antagonism pKb” value (DOP receptor; ref 60) of the same molecule?
**A.** 10.50

**Q.** And the “Physiological or behavioural toxicity” value (Sprague Dawley rats [5])?
**A.** did not observe any physiological or behavioural toxicity
